Source: US9951010B2, “Compounds as CRTH2 antagonist and uses thereof” (SUNSHINE LAKE PHARMA CO., LTD., priority 2014, dated 2018)

Key:
[1] = test system: OVA (ovalbumin)-induced asthmatic model in rats; assay: OVA (ovalbumin)-induced asthmatic model in rats, count of white blood cells in lung lavage; type: in vivo; settings: OVA-sensitized rats, gavage once a day for three days, lung lavage solution
Procedure: The experiment purpose was to assess the drug efficacy of the test compound in OVA (ovalbumin)-induced asthmatic model in rats.
Grouping the animal randomly to control group, model group and administered group. At the first, second and third day, the control group was administered with 1 mL of PBS (phosphate buffer solution) by intraperitoneal injection, and the model group and administered group were administered with a sensitization solution (prepared by mixing 6 mL of 1% OVA in phosphate buffer solution and 54 mL of alum solution at a ratio of 1:9) by intraperitoneal injection per day (1 mL per rat).
From the nineteenth day, the administered group was administered with the test compound at a certain dose by gavage, and the control group and model group was administered with the menstruum at a corresponding dose by gavage, once a day for three days. After 1 hour of administering each day, attacking the model group and administered group with 1% OVA in phosphate buffer solution and the control group with phosphate buffer solution for 20 min.
At the twenty-third day, the animals were anesthetized with 1% pentobarbital sodium (60 mg/Kg) by intraperitoneal injection. The blood samples were collected from aorta abdominalis under pentobarbital sodium anaesthesia into EDTA-K2 tubes. After tracheal intubation was performed, the lung of the animals were lavaged with 3 mL of PBS containing 1% FBS (Fetal Bovine Serum) once, and then lavaged with 5 mL of PBS containing 1% FBS at least two times; the volume of the combined lavage solutions were adjusted to 15 mL. The total cells in the lavage solution were counted by using a hemacytometer and a Trypan blue staining method and then white blood cells in the lavage solution were counted differentially.

Detection of PK in rats = type: in vivo; settings: rat, plasma
Procedure: (§1) The analysis was performed using a 4000 QTRAPP series LC/MS/MS mass spectrometer equipped with Agilent 1200 dual injection pumps, 1290 automatic sampler, column oven and ESI source, detecting by the negative ion MRM mode. Waters Xbridge C18 column was used in the analysis, and the mobile phase consisted of phase (A) (2 mM ammonium formate+0.1% aqueous ammonia solution) and phase (B) (2 mM ammonium formate+0.1% ammonia methanol solution), the flow rate was 0.4 mL/min, column temperature was 40° C., the amount of injection was 3 μL.
(§2) The male Beagle dogs or rats were administered with the compound of the invention by intravenous injection (0.4 mg/Kg) and gavage (1 mg/Kg) respectively, the blood samples were collected at the time point of 0.083, 0.25, 0.5, 1, 2, 4, 6, 8, 10, 24 and 36 h and then centrifuged to obtain plasma samples. The compound concentrations in plasma samples at various times were detected by LC/MS/MS (the method described in biologic example 3), the main pharmacokinetic parameters were calculated, and pharmacokinetic properties of the compounds of the invention in Beagle dogs or rats were evaluated.

[2] = test system: eosinophilia in airway of Wistar rats induced by DK-PGD2; assay: Eosinophilia in airway of Wistar rats induced by DK-PGD2, cell count in BALF; type: in vivo; design: The total number of white blood cells: unit not given here; settings: for inhibitory effects on the total number of white blood cells and the number of eosinophilic granulocytes: Wistar rats induced by DK-PGD2, compared with OC000459; for Eosinophilic granulocyte C (10^5/ml) / Eosinophilic granulocyte Inhibition rate / The total number of white blood cells: Wistar rats, 10 mg/Kg preventive dose 0.5 h before DK-PGD2, BALF after 24 h
Procedure: Purpose: evaluation of inhibitory effects of the compounds on the total number of white blood cells and eosinophilia in airway of Wistar rats induced by DK-PGD2.
Process: observation on the drug therapeutic effect through preventive medication. Specific operation: After 0.5 h of administering a preventive dose, the administered group and model group were induced eosinophilia with 100 μL of DK-PGD2 by spray injection through airway of rats, the blank group was spray injected with a corresponding dose of normal saline; after 24 h of molding, the rats were killed by bloodletting from aorta abdominalis, exposing the airway and the chest, performing the trachea cannula, and the bronchial pulmonary alveoli were lavaged with 8 mL of 1% BSA in PBS in twice, the bronchoalveolar lavage fluids (BALF) were collected and placed in an ice-bath; after smear, the cells were differential counted. The concentration of DK-PGD2 mother liquor was 10 mg/mL, which was diluted 5 folds to get 2 mg/mL.

CRTH2 receptor = molecular target: T1, CRTH2 receptor (Homo sapiens, UniProt Q9Y5Y4); assay: FLIPR detection of inhibitory activity against CRTH2 (CHO-K1/G cells, PGD2 as agonist); type: cell-based; settings: CHO-K1/G cells with stable expression of CRTH2 receptor, PGD2 at EC80, FLIPR
T1 construct: expressed in transfected cells; host or cells: CHO-K1/G cells
T1 sequence (Q9Y5Y4 1-395): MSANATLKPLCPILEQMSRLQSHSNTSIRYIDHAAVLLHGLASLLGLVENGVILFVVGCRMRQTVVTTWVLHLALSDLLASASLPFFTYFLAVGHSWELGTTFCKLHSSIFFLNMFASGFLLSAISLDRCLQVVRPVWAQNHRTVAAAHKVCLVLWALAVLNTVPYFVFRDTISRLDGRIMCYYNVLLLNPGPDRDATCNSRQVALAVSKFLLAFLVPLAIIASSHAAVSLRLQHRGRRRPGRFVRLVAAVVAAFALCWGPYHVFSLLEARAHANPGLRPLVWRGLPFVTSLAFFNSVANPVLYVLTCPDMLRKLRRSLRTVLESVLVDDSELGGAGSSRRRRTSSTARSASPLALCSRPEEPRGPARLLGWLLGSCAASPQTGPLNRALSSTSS
Procedure: The test compound was weighed accurately and then dissolved in a suitable amount of DMSO to prepare a stock solution at a concentration of 10 mM; after clear and transparent, the stock solution was subpackaged and cryostoraged at −20° C. for use. Before testing, the test compound was diluted with balanced salt solution (HBSS buffer, containing 4-(2-hydroxyethyl)piperazine-1-ethanesulfonicacid) at a concentration of 20 mM) to 5 times testing concentration.
CHO-K1/G cells with stable expression of CRTH2 receptor were prepared to 5 times testing concentration and seeded into 384-microwell plate, and incubated in an incubator at 37° C./5% CO2. After incubating for 18 hours, to the cells in 384-microwell plate was added 20 μL of dye followed by the addition of 10 μL of prepared test compound solution. And then the cell plate was incubated in the incubator at 37° C./5% CO2 for 1 hour, at last which was balanced at rt for 15 min. After adding 12.5 μL of positive agonist (PGD2) at a concentration of 5 times EC80 to each well of the cell plate, the RFU (fluorescence intensity) value of the test compound was detected.
The data were recorded from ScreenWorks (version 3.1), and collected and analyzed by using Excel and GraphPad Prism 6 software to calculate the values of IC50.

[3] = Hygroscopicity test by dynamic vapor sorption; type: physicochemical; settings: DVS, 25° C.
Procedure: The hygroscopicity disclosed herein is detected on a DVS INT-Std dynamic vapor and gas absorption analyzer (England Surface Measurement Systems Company) under the humidity ranged from 0% to 95%, the airflow rate is 200 mL/min, the temperature is 25° C., and one test point is provided per rising 5% humidity.
An appropriate amount of test sample was sampled, and the hygroscopicity of the test sample was detected on a dynamic vapor sorption instrument. The experiment results are as shown in table 7; the dynamic vapor sorption profiles of the crystalline form I of the compound represented by Formula (VI) is substantial the same as shown in FIG. 19.
The hygroscopic features and definition of hygroscopic weight gain are summarized in table 8 (deriving from Chinese Pharmacopoeia 2010, appendix XIX J: Guideline on pharmaceutical hygroscopicity test, test conditions: 25° C.±1° C., Relative Humidity 80%).

[4] = Metabolic stability in rat liver microsomal; type: in vitro ADME; settings: liver microsomes, pH 7.4, 37° C.
Procedure: as §1
(§3) A mixture of the compound and human liver microsomal, a mixture of the compound and dog liver microsomal, or a mixture of the compound and rat liver microsomal were separately incubated at 37° C., under a condition of pH7.4. The sample concentrations at various incubative times were detected by LC/MS/MS (the method described in biologic example 3), speed constant was obtained by plotting “Log [drug concentration]” to “incubative time” in GraphPad Prism 5.01, and the drug half-life and intrinsic clearance rate were calculated; metabolic stability of the compound in liver microsomal were evaluated based on the drug half-life and intrinsic clearance rate.

[5] = Metabolic stability in dog liver microsomal; type: in vitro ADME; settings: liver microsomes, pH 7.4, 37° C.
Procedure: as §1, §3

[6] = Detection of PK in Beagle dogs; type: in vivo; settings: male, dog, plasma
Procedure: as §1, §2

[7] = Metabolic stability in human liver microsomal; type: in vitro ADME; settings: liver microsomes, pH 7.4, 37° C.
Procedure: as §1, §3

[8] = pH7.4, intrinsic clearance, read-out: Clearance rate
[9] = pH7.4, read-out: Drug half-life

SMILES	AUC(0-inf) (Detection of PK in rats; iv, 0.4 mg/Kg) [ng·h/mL]	AUC(0-t) (Detection of PK in rats; iv, 0.4 mg/Kg) [ng·h/mL]	Cmax (Detection of PK in rats; iv, 0.4 mg/Kg) [ng/mL]	half-life (Detection of PK in rats; iv, 0.4 mg/Kg) [h]	AUC(0-inf) (Detection of PK in rats; po, p.o. (gavage), 1 mg/Kg) [ng·h/mL]	AUC(0-t) (Detection of PK in rats; po, p.o. (gavage), 1 mg/Kg) [ng·h/mL]	Cmax (Detection of PK in rats; po, p.o. (gavage), 1 mg/Kg) [ng/mL]	half-life (Detection of PK in rats; po, p.o. (gavage), 1 mg/Kg) [h]	IC50 (CRTH2 receptor) [nM]	Eosinophilic granulocyte Inhibition ratio [1] [%]	Eosinophilic granulocyte Number (×10^5/mL) [1]	Total number of white cells (×10^5/mL) [1]	inhibitory effects on the total number of white blood cells and the number of eosinophilic granulocytes [2]	Eosinophilic granulocyte C (10^5/ml) [2]	Eosinophilic granulocyte Inhibition rate [2] [%]	The total number of white blood cells [2]	also measured
Cc1c(C2CCC(NS(=O)(=O)c3ccc(F)cc3)CC2)c2cc(F)ccc2n1CC(=O)O (single isomer, unassigned) [Example 27b, 2-(5-fluoro-3-(4-(4-fluorophenylsulfonamido)cyclohexyl)-2-methyl-1H-indol-1-yl)acetic acid]	920	883	802	1.58	1640	1600	631	1.33	57.3	38.55	142.17 ×10^5/mL	277.800 ×10^5/mL	stronger than those of OC000459	0.09597 ± 0.04^## 10^5/ml	76.76	1.986 ± 0.28	–
Cc1c(Cc2ccc3ccccc3n2)c2cc(F)ccc2n1CC(=O)O [OC000459, reference compound]	–	–	–	–	–	–	–	–	–	–	–	–	–	0.1192 ± 0.03^## 10^5/ml	70.77	2.427 ± 0.25	–
Cc1c(C2CCN(S(=O)(=O)c3ccc(F)cc3)CC2)c2cc(F)ccc2n1CC(=O)O [Crystalline form I, 2-(5-fluoro-3-(1-((4-fluorophenyl)sulfonyl)piperidin-4-yl)-2-methyl-1H-indol-1-yl)acetic acid]	–	–	–	–	–	–	–	–	–	–	–	–	–	–	–	–	Weigh increase rate % under RH 80% ([3]; RH 80%): 0.293%; Weigh increase rate % under RH 95% ([3]; RH 95%): 0.499%
Cc1c(C2CCN(S(=O)(=O)c3ccc(F)cc3)CC2)c2cc(F)ccc2n1CC(=O)O [Example 24, 2-(5-fluoro-3-(1-((4-fluorophenyl)sulfonyl)piperidin-4-yl)-2-methyl-1H-indol-1-yl)acetic acid]	1030	991	757	3.4	1890	1710	393	4.37	148	36.8	145.82 ×10^5/mL	272.775 ×10^5/mL	stronger than those of OC000459	0.0804 ± 0.02^## 10^5/ml	80.77	1.881 ± 0.26	CLint scaled [4, 8]: 13.8 mL/min/kg; half-life [4, 9]: 3 h; CLint scaled [5, 8]: 1.37 mL/min/kg; half-life [5, 9]: 42.1 h; AUC(0-inf) ([6]; iv, 0.4 mg/Kg): 5500 ng·h/mL; AUC(0-t) ([6]; iv, 0.4 mg/Kg): 5400 ng·h/mL; Cmax ([6]; iv, 0.4 mg/Kg): 3210 ng/mL; half-life ([6]; iv, 0.4 mg/Kg): 4.72 h; AUC(0-inf) ([6]; po, p.o. (gavage), 1 mg/Kg): 6920 ng·h/mL; AUC(0-t) ([6]; po, p.o. (gavage), 1 mg/Kg): 6600 ng·h/mL; Cmax ([6]; po, p.o. (gavage), 1 mg/Kg): 1160 ng/mL; half-life ([6]; po, p.o. (gavage), 1 mg/Kg): 10.8 h; CLint scaled [7, 8]: 2.55 mL/min/kg; half-life [7, 9]: 11.4 h

More lines, main results first:

AUC(0-inf) (Detection of PK in rats; iv, 0.4 mg/Kg) [ng·h/mL]	AUC(0-t) (Detection of PK in rats; iv, 0.4 mg/Kg) [ng·h/mL]	Cmax (Detection of PK in rats; iv, 0.4 mg/Kg) [ng/mL]	half-life (Detection of PK in rats; iv, 0.4 mg/Kg) [h]	AUC(0-inf) (Detection of PK in rats; po, p.o. (gavage), 1 mg/Kg) [ng·h/mL]	AUC(0-t) (Detection of PK in rats; po, p.o. (gavage), 1 mg/Kg) [ng·h/mL]	Cmax (Detection of PK in rats; po, p.o. (gavage), 1 mg/Kg) [ng/mL]	half-life (Detection of PK in rats; po, p.o. (gavage), 1 mg/Kg) [h]	IC50 (CRTH2 receptor) [nM]	SMILES	Eosinophilic granulocyte Inhibition ratio [1] [%]	Eosinophilic granulocyte Number (×10^5/mL) [1]	Total number of white cells (×10^5/mL) [1]	inhibitory effects on the total number of white blood cells and the number of eosinophilic granulocytes [2]	Eosinophilic granulocyte C (10^5/ml) [2]	Eosinophilic granulocyte Inhibition rate [2] [%]	The total number of white blood cells [2]	also measured
2780	2680	2020	1.57	5940	5670	2110	2.86	200	Cc1c(C2CCC(NC(=O)c3ccc4ccccc4n3)CC2)c2cc(F)ccc2n1CC(=O)O.Cl (single isomer, unassigned) [Example 6a, 2-(5-fluoro-2-methyl-3-(4-(quinoline-2-carboxamido)cyclohexyl)-1H-indol-1-yl)acetic acid hydrochloride]	33	153.75 ×10^5/mL	247.350 ×10^5/mL	stronger than those of OC000459	0.0568 ± 0.02^## 10^5/ml	86.85	1.634 ± 0.30	–
2500	2440	1300	4.5	4270	4090	1960	4.52	80.4	Cc1c(C2CCN(S(=O)(=O)c3ccc(F)cc3F)CC2)c2cc(F)ccc2n1CC(=O)O [Example 33, 2-(5-fluoro-3-(1-((2,4-difluorophenyl)sulfonyl)piperidin-4-yl)-2-methyl-1H-indol-1-yl)acetic acid]	–	–	–	–	–	–	–	–
